# Earlier results in patent US9044417B2, “Mineral, nutritional, cosmetic, pharmaceutical, and agricultural compositions and methods for producing the same” (Core Intellectual Properties Holdings, LLC, priority 2003, dated 2015).
# Conditions: aqueous solutions of glycolic acid, pH=3.0; general statement for comparison
smiles,measurement,value
O=C(O)CO [glycolic acid],sting or burning when applied to freshly shaven skin,will sting or burn
